Reference: ChEMBL document CHEMBL1129138, “Nucleosides and nucleotides. 152. 1-(3-C-Ethynyl--D-ribo-pentofuranosyl)uracil as a broad spectrum antitumor nucleoside” (Bioorg Med Chem Lett, 1996)

How the values were obtained:
PAM12 [1] = experiment: Compound was tested for its percentage inhibitory effect on the growth of PAN-12 tumor cell line from […] at an iv dose of 2 mg/kg x10.; type: functional, Homo sapiens
HCT-15 = experiment: Compound was tested for its inhibitory effect on the growth of HCT-15 tumor cell line from colon.; type: functional, cell-based; conditions: Homo sapiens
SNU-C2A = experiment: Compound was tested for its inhibitory effect on the growth of […] tumor cell line from colon.; type: functional, cell-based; conditions: Homo sapiens
NUGC-3 = experiment: Compound was tested for its inhibitory effect on the growth of NUGC-3 tumor cell line from stomach.; type: functional, cell-based; conditions: Homo sapiens
DLD-1 [2] = experiment: Compound was tested for its inhibitory effect on the growth of DLD-1 tumor cell line from colon.; type: functional, cell-based; conditions: Homo sapiens
KM12 [3] = experiment: Compound was tested for its percentage inhibitory effect on the growth of KM12C tumor cell line from colon at an iv dose of 2 mg/kg x10.; type: functional, Homo sapiens
AZ-521 cell line [4] = experiment: Compound was tested for its inhibitory effect on the growth of AZ-521 tumor cell line from stomach.; type: functional, cell-based; conditions: Homo sapiens
AZ-521 cell line [5] = experiment: Compound was tested for its percentage inhibitory effect on the growth of AZ-521 tumor cell line from stomach at an iv dose of 2 mg/kg x10.; type: functional, Homo sapiens
Co-3 [6] = experiment: Compound was tested for its percentage inhibitory effect on the growth of CO-3 tumor cell line from colon at an iv dose of 2 mg/kg x10.; type: functional, Homo sapiens
DLD-1 [7] = experiment: Compound was tested for its percentage inhibitory effect on the growth of DLD-1 tumor cell line from colon at an iv dose of 2 mg/kg x10.; type: functional, Homo sapiens
HT-1080 = experiment: Compound was tested for its inhibitory effect on the growth of HT1080 sarcoma tumor cell line.; type: functional, cell-based; conditions: Homo sapiens
T-24 = experiment: Compound was tested for its inhibitory effect on the growth of T24 tumor cell line from bladder.; type: functional, cell-based; conditions: Homo sapiens
MKN-45 = experiment: Compound was tested for its inhibitory effect on the growth of MKN-45 tumor cell line from stomach.; type: functional, cell-based; conditions: Homo sapiens
PANC-1 = experiment: Compound was tested for its inhibitory effect on the growth of PANC-1 tumor cell line from pancreas.; type: functional, cell-based; conditions: Homo sapiens
COLO 320DM = experiment: Compound was tested for its inhibitory effect on the growth of COLO 320DM tumor cell line from colon.; type: functional, cell-based; conditions: Homo sapiens
A549 = experiment: Compound was tested for its inhibitory effect on the growth of A-549 tumor cell line from lung.; type: functional, cell-based; conditions: Homo sapiens
KKLS = experiment: Compound was tested for its inhibitory effect on the growth of KKLS tumor cell line from stomach.; type: functional, cell-based; conditions: Homo sapiens
BXPC-3 [8] = experiment: Compound was tested for its percentage inhibitory effect on the growth of BxPC-3 tumor cell line from […] at an iv dose of 2 mg/kg x10.; type: functional, Homo sapiens
H-81 [9] = experiment: Compound was tested for its percentage inhibitory effect on the growth of H-81 tumor cell line from stomach at an iv dose of 2 mg/kg x10.; type: functional, Homo sapiens
MKN-28 = experiment: Compound was tested for its inhibitory effect on the growth of MKN-28 tumor cell line from stomach.; type: functional, cell-based; conditions: Homo sapiens
SW48 = experiment: Compound was tested for its inhibitory effect on the growth of SW-48 tumor cell line from colon.; type: functional, cell-based; conditions: Homo sapiens
KM12 [10] = experiment: Compound was tested for its percentage inhibitory effect on the growth of KM12C tumor cell line from colon at an iv dose of 15 mg/kg x14.; type: functional, Homo sapiens
DLD-1 [11] = experiment: Compound was tested for its percentage inhibitory effect on the growth of DLD-1 tumor cell line from colon at an iv dose of 15 mg/kg x14.; type: functional, Homo sapiens
BXPC-3 [12] = experiment: Compound was tested for its percentage inhibitory effect on the growth of BxPC-3 tumor cell line from […] at an iv dose of 15 mg/kg x14.; type: functional, Homo sapiens
Co-3 [13] = experiment: Compound was tested for its percentage inhibitory effect on the growth of CO-3 tumor cell line from colon at an iv dose of 15 mg/kg x14.; type: functional, Homo sapiens
H-81 [14] = experiment: Compound was tested for its percentage inhibitory effect on the growth of H-81 tumor cell line from stomach at an iv dose of 15 mg/kg x14.; type: functional, Homo sapiens
PAM12 [15] = experiment: Compound was tested for its percentage inhibitory effect on the growth of PAN-12 tumor cell line from […] at an iv dose of 15 mg/kg x14.; type: functional, Homo sapiens
AZ-521 cell line [16] = experiment: Compound was tested for its percentage inhibitory effect on the growth of AZ-521 tumor cell line from stomach at an iv dose of 2 mh/kg x10.; type: functional, Homo sapiens

Work on `C#C[C@]1(O)[C@@H](CO)O[C@@H](n2ccc(=O)[nH]c2=O)[C@@H]1O` yielded a Tumor inhibition ratio (PAM12 [1]) of 81%, an IC50 (HCT-15) of 0.043 µM and an IC50 (SNU-C2A) of 0.018 µM. For the same molecule, the IC50 (NUGC-3) was 0.034 µM, the IC50 (DLD-1 [2]) was 0.066 µM and the Tumor inhibition ratio (KM12 [3]) was 81%. It also gave an IC50 (AZ-521 cell line [4]) of 0.036 µM, a Ratio (AZ-521 cell line [5]) of 81 and a Tumor inhibition ratio (Co-3 [6]) of 90%. For the same molecule, the Tumor inhibition ratio (DLD-1 [7]) was 73%, the IC50 (HT-1080) was 0.024 µM and the IC50 (T-24) was 0.034 µM. The IC50 (MKN-45) was 0.024 µM, the IC50 (PANC-1) was 11 µM and the IC50 (COLO 320DM) was 0.06 µM. The IC50 (A549) was 0.029 µM, the IC50 (KKLS) was 0.19 µM and the Tumor inhibition ratio (BXPC-3 [8]) was 35%. The Tumor inhibition ratio (H-81 [9]) was 92%, the IC50 (MKN-28) was 0.08 µM and the IC50 (SW48) was 0.12 µM.

`O=c1[nH]c(=O)n([C@@H]2O[C@H](CO)[C@@H](O)[C@H]2O)cc1F` [5-FLUOROURIDINE] gave an IC50 (HCT-15) of 0.047 µM, an IC50 (SNU-C2A) of 0.045 µM and an IC50 (NUGC-3) of 0.022 µM. For the same molecule, the IC50 (DLD-1 [2]) was 0.073 µM, the IC50 (AZ-521 cell line [4]) was 0.05 µM and the IC50 (HT-1080) was 0.041 µM. It also gave an IC50 (T-24) of 0.014 µM, an IC50 (MKN-45) of 0.026 µM and an IC50 (PANC-1) of 11 µM. For the same molecule, the IC50 (COLO 320DM) was 0.0054 µM, the IC50 (A549) was 1.9 µM and the IC50 (KKLS) was 0.016 µM. The IC50 (MKN-28) was 0.028 µM and the IC50 (SW48) was 0.016 µM.

For `O=c1[nH]c(=O)n([C@H]2C[C@H](O)[C@@H](CO)O2)cc1F` [FLOXURIDINE], the IC50 (HCT-15) was 0.049 µM, the IC50 (SNU-C2A) was 0.0033 µM and the IC50 (NUGC-3) was 0.015 µM. The IC50 (DLD-1 [2]) was 0.092 µM, the IC50 (AZ-521 cell line [4]) was 0.05 µM and the IC50 (HT-1080) was 0.12 µM. The IC50 (T-24) was 0.12 µM, the IC50 (MKN-45) was 3.5 µM and the IC50 (PANC-1) was greater than 40 µM. For the same molecule, the IC50 (COLO 320DM) was 0.65 µM, the IC50 (A549) was 1 µM and the IC50 (KKLS) was 0.76 µM. The IC50 (MKN-28) was 0.12 µM and the IC50 (SW48) was 0.13 µM.

In the case of `O=c1[nH]cc(F)c(=O)[nH]1` [FLUOROURACIL], the IC50 (HCT-15) is reported as 5.7 µM, the IC50 (SNU-C2A) is reported as 2.7 µM and the IC50 (NUGC-3) is reported as 4.4 µM. For the same molecule, the IC50 (DLD-1 [2]) was 6 µM, the Tumor inhibition ratio (KM12 [10]) was 59% and the Tumor inhibition ratio (DLD-1 [11]) was 50%. It also gave an IC50 (AZ-521 cell line [4]) of 3.9 µM, a Tumor inhibition ratio (BXPC-3 [12]) of 50% and a Tumor inhibition ratio (Co-3 [13]) of 49%. The IC50 (T-24) was 22 µM, the IC50 (MKN-45) was 3 µM and the IC50 (PANC-1) was greater than 78 µM. It also gave an IC50 (COLO 320DM) of 1.1 µM, a Tumor inhibition ratio (H-81 [14]) of 83% and an IC50 (A549) of 1.7 µM. The IC50 (KKLS) was 6.2 µM, the Tumor inhibition ratio (PAM12 [15]) was 40% and the Tumor inhibition ratio (AZ-521 cell line [16]) was 25%. It also gave an IC50 (MKN-28) of 2.5 µM and an IC50 (SW48) of 5.7 µM.
